Experimental data as given in patent publication US20180163056A1, “HYDROPHILIC CURABLE COMPOSITIONS” (MITSUI CHEMICALS, INC., priority 2013, published 2018).

Test: Measurement of solubility with respect to cyclohexane:toluene=5:1 (by weight)
Type: physicochemical
Settings: 25° C., stirred 1 hour, 0.45 μm filter
Protocol: 1.0 g of hydrophilic compound SPA-K, namely, potassium 3-acryloyloxypropylsulfonate (or potassium 3-sulfopropylacrylate salt) as a constituent for the concentration-gradient films according to the invention was added to 10.0 g of a mixture solution including 8.3 g of cyclohexane and 1.7 g of toluene. The mixture was stirred at 25° C. for 1 hour and was filtered through a 0.45 μm membrane filter.
The filtrate was placed onto an evaporation dish, heated at 150° C. for 2 hours, and cooled to room temperature. The weight of the residue was measured.
Lastly, the solubility with respect to cyclohexane:toluene=5:1 (by weight) was calculated using the following equation.
Solubility (wt %)=Weight of residue (g)/{10.0 (g)+Weight of residue (g)}×100

Compound: C=CC(=O)OCCCS(=O)(=O)[O-].[K+] [SPA-K, potassium 3-acryloyloxypropylsulfonate]
- Solubility with respect to cyclohexane:toluene=5:1 (by weight): < 1 wt %
